Test results published in PubChem BioAssay (NCI).
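Assay format: 96-well plates, 48-hour exposure. GI50 marks 50% less growth. At the TGI there is no net growth.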

Experiments:
Experiment in all cases: growth of human tumour cells (NCI), 48 h
[1] = tested on: BT-549 breast
[2] = tested on: CAKI-1 renal
[3] = tested on: HT29 colon
[4] = tested on: NCI-H23 lung
[5] = tested on: NCI-H460 lung
[6] = tested on: SF-539 CNS
[7] = tested on: SK-MEL-5 melanoma
[8] = tested on: U251 CNS
[9] = tested on: HOP-92 NSCLC
[10] = tested on: RXF 393 renal

## Nc1cc2[nH]c(=O)c3cc(Cl)ccc3c2cc1Cl
[1]
  TGI: > 100 µM
[2]
  TGI: 40.8 µM
[3]
  TGI: > 100 µM
[4]
  TGI: 72.5 µM
[5]
  TGI: 18.8 µM
[6]
  TGI: 25.8 µM
[7]
  TGI: 27 µM
[8]
  TGI: 26.1 µM

## CCCCCCn1c(=N)n(CC(O)COc2cccc(C)c2)c2ccccc21 (stereo not given)
[1]
  GI50: 1.8 µM
  TGI: 3.51 µM
[2]
  GI50: 2.89 µM
  TGI: 10.6 µM
[9]
  GI50: 2.2 µM
  TGI: 8.02 µM
[3]
  GI50: 1.73 µM
  TGI: 3.59 µM
[4]
  GI50: 2.89 µM
  TGI: 11.5 µM
[5]
  GI50: 1.96 µM
  TGI: 3.88 µM
[6]
  GI50: 2.2 µM
  TGI: 4.43 µM
[7]
  GI50: 1.77 µM
  TGI: 3.2 µM

## O=C1c2cccc3cc4ccccc4c(c23)C(=O)N1CCCNCCNCCCN1C(=O)c2cccc3cc4ccccc4c(c23)C1=O
[1]
  TGI: 2.4 µM
[2]
  TGI: 1.52 µM
[3]
  TGI: 0.555 µM
[4]
  TGI: 1.77 µM
[5]
  TGI: 0.161 µM
[10]
  TGI: 1.58 µM
[6]
  TGI: 1.45 µM
[7]
  TGI: 1.39 µM
[8]
  TGI: 1.73 µM

## Cc1cccc(NC(=O)c2sc3nc4c(cc3c2N)CCC4)c1C
[1]
  GI50: 0.443 µM
  TGI: 23.5 µM
[2]
  GI50: 0.332 µM
  TGI: 56.7 µM
[9]
  GI50: 0.449 µM
  TGI: 19 µM
[4]
  GI50: 0.749 µM
  TGI: > 100 µM
[5]
  GI50: 0.382 µM
  TGI: 13.1 µM
[10]
  GI50: 0.18 µM
  TGI: 0.669 µM
[6]
  GI50: 0.241 µM
  TGI: 2.51 µM
[7]
  GI50: 0.268 µM
  TGI: 11.1 µM
[8]
  GI50: 0.457 µM
  TGI: 15.8 µM

## CCCC1C2=C(C(=O)OC2=O)C2C(CC)CC3=C(C(=O)OC3=O)C12 (stereo not given)
[1]
  TGI: > 100 µM
[2]
  TGI: > 100 µM
[9]
  TGI: > 100 µM
[3]
  TGI: > 100 µM
[4]
  TGI: > 100 µM
[5]
  TGI: > 100 µM
[6]
  TGI: > 100 µM
[7]
  TGI: > 100 µM
[8]
  TGI: > 100 µM

## Oc1c(Br)cc(Br)c2cccnc12
[1]
  GI50: 4 µM
  TGI: > 100 µM
[2]
  GI50: 2.29 µM
  TGI: 6.79 µM
[3]
  GI50: 6.55 µM
  TGI: 26.1 µM
[4]
  GI50: 3.56 µM
  TGI: 23.6 µM
[5]
  GI50: 2.94 µM
  TGI: 10.7 µM
[10]
  GI50: 4.13 µM
  TGI: 23.3 µM
[6]
  GI50: 3.17 µM
  TGI: 7.63 µM
[7]
  GI50: 2.09 µM
  TGI: 5.19 µM
[8]
  GI50: 3.34 µM
  TGI: 18.8 µM

## O=C(Cc1nc2ccccc2s1)C(=O)Nc1ccccc1C(F)(F)F
[2]
  TGI: > 100 µM
[9]
  TGI: > 100 µM
[3]
  TGI: > 100 µM
[4]
  TGI: > 100 µM
[5]
  TGI: > 100 µM
[10]
  TGI: > 100 µM
[6]
  TGI: > 100 µM
[7]
  TGI: > 100 µM
[8]
  TGI: > 100 µM

## Cc1ccc(S(=O)(=O)NC2(C=O)CCC(C(C)(C)C)CC2)cc1 (stereo not given)
[2]
  TGI: > 100 µM
[9]
  TGI: 99.8 µM
[3]
  TGI: > 100 µM
[4]
  TGI: 85.6 µM
[5]
  TGI: > 100 µM
[10]
  TGI: > 100 µM
[6]
  TGI: > 100 µM
[7]
  TGI: 47.2 µM
[8]
  TGI: > 100 µM

## COc1ccc(C2CC(c3cccc(Nc4ccnc5cc(Cl)ccc45)c3)=NN2c2ccc(Cl)cc2)cc1 (stereo not given)
[1]
  GI50: 2.67 µM
  TGI: 26.6 µM
[2]
  GI50: 2.38 µM
  TGI: > 100 µM
[9]
  GI50: 10.8 µM
  TGI: 66.3 µM
[4]
  GI50: 17.5 µM
  TGI: > 100 µM
[5]
  GI50: 3.04 µM
  TGI: 17.4 µM
[10]
  GI50: 17.5 µM
  TGI: 74.8 µM
[6]
  GI50: 1.8 µM
  TGI: 4.43 µM
[7]
  GI50: 3.01 µM
  TGI: 10.2 µM

## Cc1ccc(SCN2CCCCC2)cc1 (tested in a mixture with another compound)
[1]
  TGI: 15 µM
[2]
  TGI: 26.3 µM
[9]
  TGI: 31 µM
[3]
  TGI: 31.5 µM
[4]
  TGI: 22.9 µM
[10]
  TGI: 22.3 µM
[7]
  TGI: 12.5 µM
[8]
  TGI: 23.2 µM

## COc1ccc2nccc(C3OC(=O)N4CCC(=O)CC34)c2c1 (stereo not given)
[2]
  TGI: > 100 µM
[9]
  TGI: > 100 µM
[3]
  TGI: > 100 µM
[4]
  TGI: > 100 µM
[5]
  TGI: > 100 µM
[10]
  TGI: > 100 µM
[6]
  TGI: > 100 µM
[7]
  TGI: > 100 µM
[8]
  TGI: > 100 µM

## CCc1cccc(C(C)C)c1C1C(=O)C(=O)N(c2nc3ccccc3s2)C(=O)C1=O
[2]
  TGI: > 100 µM
[9]
  TGI: > 100 µM
[3]
  TGI: > 100 µM
[4]
  TGI: > 100 µM
[5]
  TGI: > 100 µM
[10]
  TGI: > 100 µM
[6]
  TGI: > 100 µM
[7]
  TGI: > 100 µM
[8]
  TGI: > 100 µM

## Cc1nn(-c2ccccc2)c2ncc3c(c12)C(=O)N(Cc1ccccc1)C3=O
[1]
  GI50: 4.23 µM
  TGI: 38.6 µM
[2]
  GI50: 2.43 µM
  TGI: 5.97 µM
[3]
  GI50: > 100 µM
  TGI: > 100 µM
[4]
  GI50: 9.64 µM
  TGI: 66.1 µM
[5]
  GI50: 2.55 µM
  TGI: > 100 µM
[10]
  GI50: 6.67 µM
  TGI: 38.3 µM
[6]
  GI50: 12.2 µM
  TGI: 56.7 µM
[7]
  GI50: > 100 µM
  TGI: > 100 µM
[8]
  GI50: 3.12 µM
  TGI: 14.2 µM

## Cn1c([N+](=O)[O-])cnc1/C=C1\Oc2ccc(Cl)cc2C1=O
[1]
  GI50: 1.2 µM
  TGI: 4.99 µM
[2]
  GI50: 0.257 µM
  TGI: 0.754 µM
[9]
  GI50: 1.03 µM
  TGI: 4.12 µM
[3]
  GI50: 0.254 µM
  TGI: 0.757 µM
[4]
  GI50: 0.652 µM
  TGI: 4.47 µM
[5]
  GI50: 0.352 µM
  TGI: 2.95 µM
[6]
  GI50: 1.62 µM
  TGI: 3.69 µM
[7]
  GI50: 0.727 µM
  TGI: 2.14 µM
[8]
  GI50: 1.16 µM
  TGI: 3.01 µM

## O=C1OC2C(O)COC2(OCc2c[nH]c3ccccc23)C1O (stereo not given) (tested in a mixture with another compound)
[2]
  TGI: > 100 µM
[9]
  TGI: > 100 µM
[3]
  TGI: > 100 µM
[4]
  TGI: > 100 µM
[5]
  TGI: > 100 µM
[10]
  TGI: > 100 µM
[6]
  TGI: > 100 µM
[7]
  TGI: > 100 µM
[8]
  TGI: > 100 µM

## Cn1c(N)cc(=O)nc1N
[1]
  TGI: > 100 µM
[2]
  TGI: > 100 µM
[3]
  TGI: > 100 µM
[4]
  TGI: > 100 µM
[5]
  TGI: > 100 µM
[6]
  TGI: > 100 µM
[7]
  TGI: > 100 µM
[8]
  TGI: > 100 µM

## O=C(CN1C(=O)c2ccccc2C1=O)NC1(C(=O)O)CCCC1
[1]
  TGI: > 100 µM
[2]
  TGI: > 100 µM
[3]
  TGI: > 100 µM
[4]
  TGI: > 100 µM
[10]
  TGI: > 100 µM
[7]
  TGI: > 100 µM
[8]
  TGI: > 100 µM

## COc1cc(C2C(C(=O)Nc3ccc(Cl)c(Cl)c3)=C(C)NC(C)=C2C(=O)Nc2ccc(Cl)c(Cl)c2)ccc1O
[2]
  TGI: 34.1 µM
[9]
  TGI: 11.1 µM
[3]
  TGI: 31.7 µM
[4]
  TGI: 27.5 µM
[5]
  TGI: 35.5 µM
[10]
  TGI: 12.8 µM
[6]
  TGI: 24.9 µM
[7]
  TGI: 25.5 µM
[8]
  TGI: 34.7 µM

## CC1SC(c2cccc(Oc3ccccc3)c2)N(CCc2cccs2)C1=O (stereo not given)
[1]
  GI50: 1.04 µM
  TGI: 2.4 µM
[2]
  GI50: 0.519 µM
  TGI: 3.37 µM
[9]
  GI50: 0.486 µM
  TGI: 1.86 µM
[3]
  GI50: 1.08 µM
  TGI: 2.93 µM
[4]
  GI50: 0.718 µM
  TGI: 3.55 µM
[5]
  GI50: 1.09 µM
  TGI: 2.49 µM
[6]
  GI50: 1.5 µM
  TGI: 3.11 µM
[7]
  GI50: 0.607 µM
  TGI: 1.87 µM
[8]
  GI50: 1.11 µM
  TGI: 2.49 µM
